Experimental data from patent publication EP4653001A1, “TREATMENT, DIAGNOSIS AND/OR PROGNOSIS OF MITOCHONDRIAL DISEASES” (Universidad Autónoma de Madrid, priority 2024, dated 2025).

How the values were obtained:
primary neurons [1] = experiment: Neuronal death; assay type: cell-based, mouse; conditions: CI inhibition
PC KO and ACLY KO cells = experiment: Cell number / viability of PC KO and ACLY KO 143B cells; assay type: cell-based
Protocol: (§1) All cell lines, 143b, HeLa, U2OS, and transmitochondrial cybrids carrying mutation in CI (ND2), CIII (CytB) or CIV (Cox2) subunits, were maintained in DMEM high glucose (HyClone), 10% FBS and 1% P/S at 37°C with 5% CO2. Mitochondrial mutant cells were cultured with supplementation of 50 µg/mL uridine. The selected cancer cell lines with different levels of malic enzyme (HCC15, KYSE410, CAKI1, J82, MDAMB453, Colo320, NCIH1703) were obtained from the DSMZ-German Collection of Microorganisms and Cell Cultures GmbH and cultured in the same DMEM 10% FBS medium. OCI-Lys3 and RCH-ACV cell lines (cells in suspension), were obtained from the same repository and cultured in RPMI 10% FBS medium. Transfections for gain- and loss-of-function studies were performed according to the manufacturer's instructions using the polyfect reagent (Qiagen, 301107). For cell number and proliferation experiments, cells were seeded in 12 or 6-well plates and allowed to proliferate for the specified durations. Subsequently, cells were trypsinized and quantified using a hemocytometer (NanoEnTek, DHC-N01). Cell viability was quantified using propidium iodide (PI; 50 µg/ml) staining.
Generation of knockout cell lines using CRISPR-Cas9 technology was performed with the lenti-CRISPR v2 vector (Addgene #52961). Guide sequences are: • sgGFPT1, 5-[…]-3 (SEQ ID NO: 1); • sgG6PD, 5-[…]-3 (SEQ ID NO: 2); • sgPHGDH, 5-[…]-3 (SEQ ID NO: 3); • sgMPC1, 5-[…]-3 (SEQ ID NO: 4) • sgPC, 5-CAGGCCCGGAACACACGGA-3 (SEQ ID NO: 5); • sgACLY, 5-[…]-3 (SEQ ID NO: 6); • sgME1, 5-[…]-3 (SEQ ID NO: 7).
To assess the relative contribution of PC and ACLY to cell death phenotype in ETC deficient cells upon PPP inhibition, we treated PC KO and ACLY KO cells with Piericidin, G6PDi or both. A massive reduction in cell viability was observed as early as 48 h in both PC KO and ACLY KO cells after dual inhibition (Figure 3E), which correlated with a significant decrease in the intracellular levels of malate (Figure 3F). […]

143B cells = experiment: Time-course cell proliferation / survival of 143B cells; assay type: cell-based; conditions: 143B cells, over the course of 96 h; Piericidin 100 nM, G6PDi 50 uM; combination effect beyond 48 h
Protocol: as §1, with “For cell number and proliferation experiments, cells were seeded in 12 or 6-well plates and allowed to proliferate for the specified durations.” left out
Next, we conducted time-course experiments to gain further knowledge on the metabolic determinants underlying the observed synthetic lethality between PPP and OXPHOS. 143B cells were treated either with Piericidin or G6PDi (selective inhibitor of G6PD) alone or the combination of both and cell proliferation was quantified over the course of 96 h. […]

mouse cortical neurons = experiment: ATP measurement in neurons (ATP Assay Kit); assay type: cell-based; conditions: CI-inhibited neurons, 100 nM, 24 h
Protocol: (§2) Primary cultures of C57BL/6 mouse cortical neurons were prepared from embryos between embryonic days 16.5 and 17.5 and seeded onto pre-treated plates coated with Poly-L-lysine hydrobromide (500 µg/ml). We used Neurobasal medium without D-glucose and sodium pyruvate (ThermoFisher) to modulate D-glucose levels, depending on the experiment (2.5 mM, 5 mM, or 25 mM).
In standard experiments, we utilized Neurobasal medium with 25 mM D-glucose, 1 mM sodium pyruvate (ThermoFisher), B27 plus supplement (GIBCO), GlutaMax I 100X (GIBCO), and 1% penicillin/streptomycin (P/S). Starting from day 6 in vitro (DIV6), half of the medium was replaced every 3-4 days, omitting GlutaMax I.
ATP Assay Kit (Abcam, #ab83355) was used to analyze ATP levels. Briefly, Cells were seeded in M24 plates (neurons at 500,000 cells/mL and monolayer density for astrocytes), and for the ATP experiments, three wells per condition were combined. An alternative deproteinization protocol was applied to purify the samples, and a Colorimetric Assay was conducted as outlined in the original protocol. The measurements were obtained using the CLARIOstar Plus plate reader from BMG LABTECH.

primary neurons [2] = experiment: Neuron axon morphology (immunofluorescence); assay type: cell-based, mouse; conditions: CI inhibition, 100 nM 24 h, extensive axon degeneration
Protocol: as §2
Neuron axon morphology was quantified in primary neurons exposed to DMSO or 100 nM piericidin for 24 h. Neurons were fixed with 4% paraformaldehyde for 10 min, blocked, and permeabilized in 0.1% Triton X-100 (Tx)-PBS with 10% fetal bovine serum for 15 minutes at room temperature. Then, neurons were incubated with the primary BIII-Tubulin antibody (1:500, ab78078, Abcam) in 0.1% Tx/10% FBS-PBS overnight at 4°C. Subsequently, wells were rinsed several times in PBS before applying the fluorochrome-conjugated secondary antibody (ThermoScientific) in 0.1% Tx/10% FBS-PBS for 1h at room temperature. Neurons were finally washed in PBS, and DAPI was added prior to the microscopic analysis. Acquired confocal images were quantified by measuring the BIII-Tubulin fluorescent integrated density and normalized by the number of DAPI-positive nuclei.

## CC=C(C)C(O)C(C)C=C(C)C=CCC(C)=CCc1nc(OC)c(OC)c(O)c1C (stereo not shown) [Piericidin, Piericidin A]
Primary neurons [1]
  neuronal death: did not correspond to an increase
PC KO and ACLY KO cells; ACLY KO cells
  cell death or cell proliferation: did not translate into increased cell death or impaired cell proliferation
PC KO and ACLY KO cells; PC KO cells, 100 nM, 72 h
  proliferation: proliferated normally
PC KO and ACLY KO cells; double ablation of PC and ACLY, 100 nM, 72 h
  sensitivity to ETC inhibition (cell number): sensitize
143B cells
  cellular fitness / cell survival: did not cause a substantial decline
Mouse cortical neurons
  ATP levels: maintained
Primary neurons [2]
  neuron morphology: significant morphological alterations
